Experimental data published in patent US20230322797A1, “SOLID FORMS, PHARMACEUTICAL COMPOSITIONS AND PREPARATION OF HETEROAROMATIC MACROCYCLIC ETHER COMPOUNDS” (Nuvalent, Inc., priority 2022, published 2023).
Counter-ions that a name gives are not always drawn.

Columns and labels:
Type in all cases: physicochemical
[1] = Solubility of Compound 1 salts in organic solvents (solvent volumes)
Method: Preparation of Additional Salts: Additional salts shown in the Table below were prepared using procedures similar to those described above and the solubility of the resulting salts of Compound 1 was evaluated.

[2] = Desolvation experiments on solvated forms (heating, then XRPD)
Method: Desolvation experiments were carried out on the solvated forms identified during the polymorph screen to establish the relationships between the forms. Samples were heated to a temperature at which the solids fully desolvated (based on TG/DSC characterisation data) and where exothermic events were observed after desolvation a separate experiment was carried out to assess for additional solid forms.

[3] = Solubility of salts of Compound 2 and free base in distilled water (gravimetric)
Method: Solubility of the scaled-up salts of Compound 2 and free base Compound 2 was assessed in distilled water at RT. Approximately 30 mg of solid was weighed directly into 2 mL vials, and a 6 mm stir bar was added to each vial. Water was then incrementally added to the vials (starting with 1 vol.) and the resulting slurries were left to stir for 10-15 min prior to the next addition. As all solids remained in slurries upon the addition of 1 mL of water, the gravimetric method was adopted, and the vials were stirred at RT for 3 days before centrifuging. Supernatant solutions were recovered and evaporated to dryness at 50° C. in atmosphere on a hot plate, then placed at 50° C. under vacuum (˜−29 inHg) for 3 h before final weighing.

[4] = target temperature 150 °C, after desolvation
[5] = target temperature 200 °C, after exothermic event

| SMILES | Solubility, Volume (at 10-20° C.) ([1]; 2-MeTHF) | Solubility, Volume (at 10-20° C.) ([1]; Acetone) | Solubility, Volume (at 10-20° C.) ([1]; CPME) | Solubility, Volume (at 10-20° C.) ([1]; EtOAc) | Solubility, Volume (at 10-20° C.) ([1]; IPA) | Solubility, Volume (at 10-20° C.) ([1]; IPAc) | Solubility, Volume (at 10-20° C.) ([1]; MeCN) | Solubility, Volume (at 10-20° C.) ([1]; THF) | Solubility, Volume (at 10-20° C.) ([1]; Toluene) | Solubility, Volume (at 10-20° C.) ([1]; t-AmOH) | Solid Form post-heating [2, 4] | further results |
| --- | --- | --- | --- | --- | --- | --- | --- | --- | --- | --- | --- | --- |
| CCn1nc(Cl)c2c1-c1cnc(N)c(c1)O[C@H](C)c1cc(F)ccc1-c1nn(C)cc1C2 [Maleic Acid salt] | 50-60 V | 2-4 V | 220 V | 20-30 V | 70-80 V | 20-30 V | 16-20 V | 2-4 V | >400 V | 6-8 V |  |  |
| CCn1nc(Cl)c2c1-c1cnc(N)c(c1)O[C@H](C)c1cc(F)ccc1-c1nn(C)cc1C2 [Form 1] |  |  |  |  |  |  |  |  |  |  | Form 2 | Solid Form post-heating ([2]; target temperature 105 °C, after desolvation): Form 2 |
| CCn1nc(Cl)c2c1-c1cnc(N)c(c1)O[C@H](C)c1cc(F)ccc1-c1nn(C)cc1C2 [Citric Acid salt] | 8-10 V | 6-8 V | 330 V | >400 V | 24-28 V | >400 V | 300-400 V | 10-12 V | >400 V | 86-90 V |  |  |
| CCn1nc(Cl)c2c1-c1cnc(N)c(c1)O[C@H](C)c1cc(F)ccc1-c1nn(C)cc1C2 [HCl salt] | >400 V | 22-24 V | >500 V | >400 V | 8-10 V | >400 V | 8-10 V | 300-400 V | >400 V | 18-20 V |  |  |
| CCn1nc(Cl)c2c1-c1cnc(N)c(c1)O[C@H](C)c1cc(F)ccc1-c1nn(C)cc1C2 [Form 9] |  |  |  |  |  |  |  |  |  |  | Form 2 |  |
| CCn1nc(Cl)c2c1-c1cnc(N)c(c1)O[C@H](C)c1cc(F)ccc1-c1nn(C)cc1C2 [TsOH salt] | >400 V | 10-12 V | >400 V | 18-20 V | >400 V | 18-20 V | 8-10 V | 280-300 V | >400 V | >400 V |  |  |
| CCn1nc(Cl)c2c1-c1cnc(N)c(c1)O[C@H](C)c1cc(F)ccc1-c1nn(C)cc1C2 [Form 8] |  |  |  |  |  |  |  |  |  |  | Form 2 | Solid Form post-heating [2, 5]: Form 2 |
| CCn1nc(Cl)c2c1-c1cnc(N)c(c1)O[C@H](C)c1cc(F)ccc1-c1nn(C)cc1C2 [Fumaric Acid salt] | 8-10 V | 8-10 V | 50-60 V | 80-90 V | 8-9 V | 90-100 V | 150-200 V | 3-4 V | >400 V | 22-24 V |  |  |
| CCn1nc(Cl)c2c1-c1cnc(N)c(c1)O[C@H](C)c1cc(F)ccc1-c1nn(C)cc1C2 [Form 13] |  |  |  |  |  |  |  |  |  |  | Form 2 |  |
| CCn1nc(Cl)c2c1-c1cnc(N)c(c1)O[C@H](C)c1cc(F)ccc1-c1nn(C)cc1C2 [Form 4] |  |  |  |  |  |  |  |  |  |  |  | Solid Form post-heating ([2]; target temperature 132 °C, after desolvation): Form 2; Solid Form post-heating ([2]; target temperature 170 °C, after exothermic event): Form 2 |
| CCn1nc(Cl)c2c1-c1cnc(N)c(c1)O[C@H](C)c1cc(F)ccc1-c1nn(C)cc1C2 [Form 11] |  |  |  |  |  |  |  |  |  |  |  | Solid Form post-heating ([2]; target temperature 130 °C, after desolvation): Form 2; Solid Form post-heating [2, 5]: Form 2 |
| CCn1nc(Cl)c2c1-c1cnc(N)c(c1)O[C@H](C)c1cc(F)ccc1-c1nn(C)cc1C2 [L-Tartaric Acid Salt] | 4-6 V | 2-4 V | 60-70 V | 12-14 V | 18-20 V | 52-56 V | 30-32 V | 8-10 V | >400 V | 18-20 V |  |  |
| CCn1nc(Cl)c2c1-c1cnc(N)c(c1)O[C@H](C)c1cc(F)ccc1-c1nn(C)cc1C2 [H3PO4 salt] | >160 V | 58-60 V | >500 V | >100 V | 140-150 V | >400 V | >400 V | >160 V | >400 V | >400 V |  |  |
| CCn1nc(Cl)c2c1-c1cnc(N)c(c1)O[C@H](C)c1cc(F)ccc1-c1nn(C)cc1C2 [MSA salt] | >400 V | 56-60 V | >400 V | 300-400 V | 56-60 V | 260-300 V | 6-8 V | 60-100 V | >400 V | 340-360 V |  |  |
| CCn1nc(Cl)c2c1-c1cnc(N)c(c1)O[C@H](C)c1cc(F)ccc1-c1nn(C)cc1C2 [Form 7] |  |  |  |  |  |  |  |  |  |  |  | Solid Form post-heating ([2]; target temperature 134 °C, after desolvation): Form 2 |
| CCn1cc(Cc2cn(C)nc2-c2ccc(F)cc2[C@@H](C)Oc2cc(Br)cnc2N)c(Cl)n1 [Free Base] |  |  |  |  |  |  |  |  |  |  |  | Solubility (mg solid/mL water) ([3]; distilled water, RT, stirred 3 days, gravimetric): <3 mg solid/mL water; XRPD Pattern Recovered ([3]; solid recovered after slurry in water at RT): Amorphous |
| CCn1nc(Cl)c2c1-c1cnc(N)c(c1)O[C@H](C)c1cc(F)ccc1-c1nn(C)cc1C2 [Form 12] |  |  |  |  |  |  |  |  |  |  | Form 2 |  |
| CCn1nc(Cl)c2c1-c1cnc(N)c(c1)O[C@H](C)c1cc(F)ccc1-c1nn(C)cc1C2 [Form 10] |  |  |  |  |  |  |  |  |  |  | Form 2 |  |
| CCn1nc(Cl)c2c1-c1cnc(N)c(c1)O[C@H](C)c1cc(F)ccc1-c1nn(C)cc1C2 [Form 15] |  |  |  |  |  |  |  |  |  |  | Amorphous | Solid Form post-heating [2, 5]: Form 2 |
| CCn1nc(Cl)c2c1-c1cnc(N)c(c1)O[C@H](C)c1cc(F)ccc1-c1nn(C)cc1C2 [Salicylic acid salt] | 18-20 V | 26-28 V | 100-140 V | 26-30 V | 300-400 V | 56-60 V | 90-100 V | 4-6 V | 320-360 V | >400 V |  |  |
